Where no end group is shown, it is not given here.
Assays:
[1] = test system: recombinant HLA-A2.1 and b2-microglobulin; assay: HLA-A2.1 peptide binding assay (inhibition of binding of fluorescent standard peptide, cell free); set-up: species or system human; details: for HLA-A2.1 binder class: class assigned from IC50
Description: (§1) FIG. 4a. Binding of HA-1^H and HA-1^R peptides to HLA-A2.1. The binding of HA-1^H and HA-1^R peptides were assayed for their ability to inhibit the binding of fluorescent peptide […] (SEQ ID NO: 17) to recombinant HLA-A2.1 and b2-microglobulin in a cell free peptide binding assay. One representative experiment is shown. […] (FIG. 4b.) Reconstitution assay with different concentrations of synthetic HA-1^R peptide with HA-1 specific T cells. The HA-1^R peptide was titrated and preincubated with T2 cells. Three HA-1 specific T cell clones, 5W38, 3HA15 and clone 15 were added and a 4 hr ^51Cr-release assay was performed. Background lysis of T2 by the CTL in the absence of any peptide was for 3HA15 4%, for clone 15 10% and for 5W38 2%. Positive control lysis was for 3HA15 46%, for clone 15 47% and 5W38 48%.
Reconstitution and HLA-A2.1 binding assays were performed to determine the capacity of HA-1^R peptide […] (SEQ ID NO: 5) to bind to HLA-A2.1 and to be recognized by the HA-1 specific T cell clones. […] Different concentrations of […] (SEQ ID NO: 5) were tested in a ^51Cr-release assay with three HA-1 specific T cell clones.
HLA-A2.1 peptide binding assay. A quantitative assay for HLA-A2.1 binding peptides based on the inhibition of binding of the fluorescent labeled standard peptide Hbc 18–27 F to C6 ([…]) (SEQ ID NO: 17) to recombinant HLA-A2.1 protein and B2-microglobulin was used^26,27. In short, HLA-A2.1 concentrations yielding approximately 40–60% bound fluorescent standard peptide were used with 15 pmol/well (150 nM) B2-microglobulin (Sigma). Various doses of the test peptides were coincubated with 100 fmol/well (1 nM) fluorescent standard peptide, HLA-A2.1 and B2-microglobulin for 1 day at room temperature in the dark in a volume of […] in assay.buffer. The percent of MHC-bound fluorescence was determined by gel filtration and the 50% inhibitory dose was deduced for each peptide using one-site competition non-linear regression analysis with the prismgraph software. […]

[2] = test system: HA-1 specific T cell clones 3HA15, clone 15 and 5W38 (T2 target cells); assay: 51Cr-release reconstitution assay (CML assay) with peptide-loaded T2 cells and HA-1 specific CTL clones; type: cell-based, human
From the text: FIG. 2. Sequencing of mH HA-1 peptide by tandem mass spectrometry. (FIG. 2a.) Collision activation dissociation mass spectrum of peptide candidate with m/z of 513. (FIG. 2b.) Reconstitution assay with different concentrations of synthetic mH HA-1 peptide with three HA-1 specific T cell clones, 3HA15, clone 15 and 5W38. Background lysis of T2 by the CTL in the absence of any peptide was for 3HA15 4%, for clone 15 10% and for 5W38 2%. Positive control lysis was for 3HA15 46%, for clone 15 47% and 5W38 48%.
as §1, with “48%. […]” for “48%.”

| Sequence | HLA-A2.1 binder class [1] | peptide concentration needed for recognition relative to that for the HA-1^H peptide ([2]; clone 3HA15 only (one out of three clones showed recognition)) [times] | fold lower binding affinity for HLA-A2.1 versus HA-1^H peptide [1] [fold] | reconstitution of the HA-1 epitope by synthetic peptide ([2]; results not shown) |
| --- | --- | --- | --- | --- |
| VLHDDLLEA | high affinity binders |  |  |  |
| VLRDDLLEA | intermediate binders | 1000 | 10 |  |
| YXTDRVMTV [peptide candidate m/z 550; X stands for Isoleucine or Leucine] |  |  |  | not able to reconstitute the HA-1 epitope |

Reference: patent US7205119B2, “HA-1 antigen” (Rijksuniversiteit te Leiden, priority 1997, dated 2007)
